Here are results for three compounds from US3956279A, “Crystalline pivaloyloxymethyl d(-)-α-aminobenzylpenicillinate” (priority 1973, dated 1976).

SMILES strings stand for the structures. Converted amounts (≈) assume the structure as drawn. Where a name gives a salt, the structure may show the parent alone. Read-outs that look alike come from different tables or passages of the source. Where only a bound is given, the exact number is not on record here.

Broadly, the solubility is how much of the substance goes into solution per volume.

The conditions of series [1]: salts of pivampicillin, cited from earlier work.
Details of series [2]: species or system healthy volunteers (adults). The settings on record: human, in vivo. As for the experimental part:
The above preparation was given to five healthy volunteers (adults), and as will appear from Table II below, gave rise to high serum concentrations and a high urinary recovery, as expressed below in terms of serum concentrations and urinary excretion, respectively.
SERUM CONCENTRATIONS (mcg per ml) AND URINARY EXCRETION
(in per cent of dose administered) OF AMPICILLIN IN FIVE
HEALTHY VOLUNTEERS (ADULTS) FOLLOWING ORAL ADMINISTRATION
OF 10 ml OF "PIVAMPICILLIN ORAL SUSPENSION" CONTAINING
PIVAMPICILLIN BASE CORRESPONDING TO 250 mg AMPICILLIN

The conditions of series [3]: chemical substance pivampicillin, under certain conditions; cited from earlier work.
The nature of series [4]: Density of crystalline pivampicillin compared with its salts. Type of series: physicochemical. The following applies: crystalline pivampicillin versus its salts.
The nature of series [5]: Solubilities at room temperature (about 25°C) in various solvents. Type of series: physicochemical.
A short description of series [6]: Stability of crystalline pivampicillin and of the preparation of Example 20 (chemical analyses). It is filed as physicochemical. The following applies: crystalline pivampicillin in medical preparations. As for the experimental part:
Thus the preparation, the formulation of which is described in Example 20 of the present Specification, had according to chemical analyses a stability corresponding to a decrease in activity in the order of 5% over a 2 years period when stored at 20°C and a relative humidity of 40%.

With `CC(C)(C)C(=O)OCOC(=O)[C@@H]1N2C(=O)[C@@H](NC(=O)[C@H](N)c3ccccc3)[C@H]2SC1(C)C`, the “Solubility of salt in water (in words)” value in series [1] is listed as “slightly soluble in water”.

On to `CC(C)(C)C(=O)OCOC(=O)[C@@H]1N2C(=O)[C@@H](NC(=O)[C@H](N)c3ccccc3)[C@H]2SC1(C)C` [hydrochloride, pivaloyloxymethyl D(-)-α-aminobenzylpenicillinate, hydrochloride], for which the “Solubility of salt in water (in words)” value in series [1] (hydrochloride) is reported as “readily soluble in water”.

Turning to `CC(C)(C)C(=O)OCOC(=O)[C@@H]1N2C(=O)[C@@H](NC(=O)[C@H](N)c3ccccc3)[C@H]2SC1(C)C` [pivampicillin, pivaloyloxymethyl D(-)-α-aminobenzylpenicillinate], in series [2], the “Absorption (in words)” value is on record as “excellent absorption”. In series [3], the Tendency to polymerize entry is listed as “apt to polymerize”. In addition, in series [4], the Density entry was “higher density than its salts”. The “Solubility in water (in words)” value in series [5] (crystalline pivampicillin) is on record as “extremely low solubility in water”. Moreover, in series [5] (methanol, room temperature (about 25°C)), the Stability in methanol result is listed as “destruction”. Besides, the solubility was 450000 µg/mL (≈ 971 mM) in series [5] (organic solvent or mixture, acetonitrile, room temperature (about 25°C), read-out: Solubility in acetonitrile); 150 µg/mL (≈ 0.324 mM) in series [5] (organic solvent or mixture, cyclohexane, room temperature (about 25°C), read-out: Solubility in cyclohexane); 40000 µg/mL (≈ 86.3 mM) in series [5] (organic solvent or mixture, ethanol, room temperature (about 25°C), read-out: Solubility in ethanol); 10000 µg/mL (≈ 21.6 mM) in series [5] (organic solvent or mixture, ether, room temperature (about 25°C), read-out: Solubility in ether); 12000 µg/mL (≈ 25.9 mM) in series [5] (organic solvent or mixture, isopropanol, room temperature (about 25°C), read-out: Solubility in isopropanol); 1000 µg/mL (≈ 2.16 mM) in series [5] (organic solvent or mixture, isopropylether, room temperature (about 25°C), read-out: Solubility in isopropylether). Also, the solubility is 20 µg/mL (≈ 0.0431 mM) in series [5] (organic solvent or mixture, light petroleum (bp. 60-80°C), room temperature (about 25°C), read-out: Solubility in light petroleum); over 500000 µg/mL in series [5] (organic solvent or mixture, methanol, room temperature (about 25°C), (destruction), read-out: Solubility in methanol); 100 µg/mL (≈ 0.216 mM) in series [5] (water, room temperature (about 25°C), read-out: Solubility in water). Moreover, in series [6], the “Stability (in words)” value is given as “stable compound”.
